Source: patent US8906868B2, “Aminoglycoside derivatives” (Rempex Pharmaceuticals, Inc., priority 2010, dated 2014)
Converted amounts (≈) assume the structure as drawn. Where two headings read alike, the source gives them in different places.

How the values were obtained:
[1] = tested on: ECM6003 rmtB; test: microbe, parasite or virus in culture; format: cell-based, Escherichia coli; settings: Escherichia coli
Outline: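 Broth microdilution per CLSI M7-A7 in cation-adjusted Mueller Hinton broth with 2-fold serial dilutions and 5×10^5 CFU/ml inoculum. Incubated 18 hours at 35 °C; MIC read by turbidity at 600 nm and confirmed visually.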

[2] = tested on: ECM6007 aac(6′) + aph(2″); test: microbe, parasite or virus in culture; format: cell-based, Escherichia coli; settings: Escherichia coli
Outline: (§1)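 Compounds were dissolved as CLSI specifies and diluted 2-fold in cation-adjusted Mueller Hinton broth. Colony suspensions were added to a final 5×10^5 CFU/ml, plates incubated 18 hours at 35° C, and MIC scored from absorbance at 600 nm with visual confirmation.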

[3] = tested on: EC1001 acc(6′)-Ib; test: microbe, parasite or virus in culture; format: cell-based, Escherichia coli; settings: Escherichia coli
Outline: as §1

[4] = tested on: Pseudomonas aeruginosa PAM2900 PAM2859/pXY; test: MIC, representative strains; format: cell-based; settings: read-out: MIC Pseudomonas aeruginosa PAM2900 PAM2859/pXY
Method: (§2) To compare microbiological activity of the test compounds, minimum inhibitory concentrations (MIC.s) were determined. Antibiotic MICs were obtained using the broth microdilution method according to Clinical and Laboratory Standards Institute (CLSI) approved guidelines (Methods for dilution antimicrobial susceptibility tests for bacteria that grow aerobically; approved standard—7th ed. CLSI document M7-A7. Clinical and Laboratory Standards Institute, Wayne, Pa., incorporated herein by reference in its entirety). Antibiotics were dissolved as specified by CLSI (Performance standards for antimicrobial susceptibility testing; Seventeenth informational supplement. CLSI document M100-S17. Clinical and Laboratory Standards Institute, Wayne, Pa., incorporated herein by reference in its entirety), and were serially diluted 2-fold in cation adjusted Mueller Hinton Broth (CaMHB) at 2× concentration. Bacterial inoculums were prepared in CaMHB by suspension of a colony from an agar plate that was prepared the previous day to obtain a final concentration of 5×10^5CFU/ml. The plates were incubated for 18 hours at 35° C. […] MIC.s were determined by reading the turbidity of plate wells using a SpectraMax Plus384 plate reader (Molecular Devices, Sunnyvale, Calif., USA) at 600 nm and were confirmed by visual inspection.

[5] = tested on: Pseudomonas aeruginosa PAM2859 multiple pumps deleted; test: MIC, representative strains; format: cell-based; settings: read-out: MIC Pseudomonas aeruginosa PAM2859 multiple pumps deleted
Method: as §2

[6] = tested on: Enterobacter aerogenes EAM1000 ATCC 13048; test: MIC, representative strains; format: cell-based; settings: Klebsiella aerogenes, ATCC13048, read-out: MIC Enterobacter aerogenes EAM1000 ATCC 13048
Method: as §2

[7] = tested on: Staphylococcus aureus SAM1001 ATCC 25923; test: MIC, representative strains; format: cell-based; settings: ATCC25923, read-out: MIC Staphylococcus aureus SAM1001 ATCC 25923
Method: as §2

[8] = tested on: Citrobacter freundii CFM1000 ATCC 8090; test: MIC, representative strains; format: cell-based; settings: ATCC8090, read-out: MIC Citrobacter freundii CFM1000 ATCC 8090
Method: as §2

[9] = tested on: Enterobacter cloacae ECLM1000 ATCC 13047; test: MIC, representative strains; format: cell-based; settings: ATCC13047, read-out: MIC Enterobacter cloacae ECLM1000 ATCC 13047
Method: as §2

[10] = tested on: Escherichia coli (ATCC 25922); test: MIC, broth microdilution; settings: Escherichia coli
[11] = tested on: mice; test: Acute toxicity in mice (minimal lethal dose); format: in vivo; settings: IV tail vein, observed 24 hours, lowest dose lethal for at least one mouse
Method: The acute toxicity of 44 was compared to that of 45 in mice. Ascending doses of each compound were administered to mice (n=3) IV through the tail vein. […] Acute toxicity was reported as the minimal lethal dose, or MLD, defined as the lowest dose of a compound that is lethal for at least one mouse.

[12] = tested on: 143 clinical isolates of various species of Enterobacteriacea; test: MIC against clinical isolates of Enterobacteriacea; format: cell-based; settings: for MIC50: MIC of 50% population; for MIC50 / MIC90: 143 clinical isolates of Enterobacteriacea; for MIC90: MIC of 90% population; for share of strains of Enterobacteriacae in which the compound was more potent than the other (44 vs. 45): by ratio of MICs
Method: as §2
Table 9 summarizes results of testing 44 and 45 against 143 clinical isolates of various species of Enterobacteriacea.

[13] = tested on: Pseudomonas aeruginosa (ATCC 27853); test: MIC, broth microdilution; settings: Pseudomonas aeruginosa
[14] = tested on: Klebsiella pneumonia (ATCC 43816); test: MIC, broth microdilution; settings: Klebsiella pneumoniae
[15] = tested on: Staphylococcus aureus (ATCC 29213); test: MIC, broth microdilution; settings: Staphylococcus aureus
[16] = tested on: PAM3073 aac(6′)-I; test: microbe, parasite or virus in culture; format: cell-based, Pseudomonas aeruginosa; settings: Pseudomonas aeruginosa
Outline: as §1

[17] = tested on: PAM3072 aac(6′)-II; test: microbe, parasite or virus in culture; format: cell-based, Pseudomonas aeruginosa; settings: Pseudomonas aeruginosa
Outline: as §1

[18] = tested on: EC1002 aph(3′)-IV; test: organism not typed; format: cell-based; settings: read-out: Compound MIC on Bacterial Strains: EC1002 aph(3′)-IV
Outline: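 A colony from the previous day's agar plate is suspended in CaMHB to give 5×10^5 CFU/ml final. This inoculum is added to 2-fold compound dilutions, incubated 18 hours at 35° C, and turbidity at 600 nm, checked by eye, defines the MIC.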

[19] = Table 3, read-out: Compound MIC on Bacterial Strains: ECM6003 rmtB
[20] = Table 8, read-out: MIC Escherichia coli ECM6003 rmtB
[21] = 18 h, Table 4, read-out: Compound MIC on Bacterial Strains: Escherichia coli ECM6007 aac(6′) + aph(2″)
[22] = Table 8, read-out: MIC Escherichia coli ECM6007 aac(6′) + aph(2″)
[23] = Table 4, read-out: Compound MIC on Bacterial Strains: Escherichia coli EC1001 acc(6′)-Ib
[24] = Table 8, read-out: MIC Escherichia coli EC1001 aac(6′)-Ib
[25] = ATCC25922, read-out: Compound MIC on Bacterial Strains: E. coli ATCC 25922
[26] = ATCC25922, read-out: Compound MIC on Bacterial Strains: ECM6000 ATCC 25922
[27] = ATCC25922, read-out: Compound MIC on Bacterial Strains: Escherichia coli ECM6000 ATCC 25922
[28] = ATCC25922, read-out: MIC Escherichia coli ECM6025 ATCC 25922
[29] = ATCC27853, read-out: Compound MIC on Bacterial Strains: P. aeruginosa ATCC 27853
[30] = ATCC27853, read-out: Compound MIC on Bacterial Strains: Pseudomonas aeruginosa PAM3034 ATCC 27853
[31] = ATCC27853, read-out: MIC Pseudomonas aeruginosa PAM3034 ATCC 27853
[32] = ATCC43816, read-out: Compound MIC on Bacterial Strains: K. pneumonia ATCC 43816
[33] = ATCC43816, read-out: MIC Klebsiella pneumoniae KPM1001 ATCC 43816
[34] = ATCC29213, read-out: Compound MIC on Bacterial Strains: S. aureus ATCC 29213, QC strain, Table 2
[35] = ATCC29213, read-out: Compound MIC on Bacterial Strains: Staphylococcus aureus SAM1000 ATCC 29213, Table 5
[36] = ATCC29213, read-out: MIC Staphylococcus aureus SAM1000 ATCC 29213, Table 7
[37] = Table 5, read-out: Compound MIC on Bacterial Strains: Pseudomonas aeruginosa PAM3073 aac(6′)-I
[38] = Table 8, read-out: MIC Pseudomonas aeruginosa PAM3073 aac(6′)-I, wt efflux
[39] = Table 5, read-out: Compound MIC on Bacterial Strains: Pseudomonas aeruginosa PAM3072 aac(6′)-II
[40] = Table 8, read-out: MIC Pseudomonas aeruginosa PAM3072 aac(6′)-II or III

Row | Compound | MIC [1, 19] [µg/mL] | MIC [1, 20] [µg/mL] | MIC [2, 21] [µg/mL] | MIC [2, 22] [µg/mL] | MIC [3, 23] [µg/mL] | MIC [3, 24] [µg/mL] | MIC [4] [µg/mL] | MIC [5] [µg/mL] | MIC [6] [µg/mL] | MIC [7] [µg/mL] | MIC [8] [µg/mL] | MIC [9] [µg/mL] | MIC [10, 25] [µg/mL] | MIC [10, 26] [µg/mL] | MIC [10, 27] [µg/mL] | MIC [10, 28] [µg/mL] | minimal lethal dose (MLD) [11] [mg/kg] | MIC50 [12] [µg/mL] | MIC90 [12] [µg/mL] | share of strains of Enterobacteriacae in which the compound was more potent than the other (44 vs. 45) [12] | also measured
1 | CN[C@@H]1C(O)[C@@H](OC2C(O)C(O[C@H]3O[C@H](CNC[C@@H](O)CO)CCC3N)[C@@H](N)C[C@H]2NC(=O)[C@@H](O)CN)OCC1(C)O (stereo partly drawn) [Compound 44] | > 8 | > 8 | < 1 | < 1 | < 1 | < 1 | > 8 | < 1 | < 1 | < 1 | < 1 | < 1 | < 1 | < 1 | < 1 | < 1 | > 125 | 0.5 | 2 | ~75% | MIC [13, 29]: 1 to 8 µg/mL (≈ 1.64 to 13.1 µM); MIC [13, 30]: 1 to 8 µg/mL (≈ 1.64 to 13.1 µM); MIC [13, 31]: 1 to 8 µg/mL (≈ 1.64 to 13.1 µM); MIC [14, 32]: < 1 µg/mL; MIC [14, 33]: < 1 µg/mL; MIC [15, 34]: < 1 µg/mL; MIC [15, 35]: < 1 µg/mL; MIC [15, 36]: < 1 µg/mL; MIC [16, 37]: 1 to 8 µg/mL (≈ 1.64 to 13.1 µM); MIC [16, 38]: 1 to 8 µg/mL (≈ 1.64 to 13.1 µM); MIC [17, 39]: > 8 µg/mL; MIC [17, 40]: > 8 µg/mL; MIC [18]: < 1 µg/mL
2 | CN[C@@H]1[C@@H](O)[C@@H](O[C@@H]2[C@@H](O)[C@H](O[C@H]3O[C@H](CNC[C@H](O)CO)CC[C@H]3N)[C@@H](N)C[C@H]2NC(=O)[C@@H](O)CN)OC[C@]1(C)O [Compound 45, (S)-3-amino-N-((1R,2S,3S,4R,5S)-5-amino-4-((2R,3R,6S)-3-amino-6-(((S)-2,3-dihydroxypropylamino)methyl)tetrahydro-2H-pyran-2-yloxy)-2-((2R,3R,4R,5R)-3,5-dihydroxy-5-methyl-4-(methylamino)tetrahydro-2H-pyran-2-yloxy)-3-hydroxycyclohexyl)-2-hydroxypropanamide] | > 8 | > 8 | < 1 | < 1 | 1 to 8 (≈ 1.64 to 13.1 µM) | 1 to 8 (≈ 1.64 to 13.1 µM) | > 8 | < 1 | 1 to 8 (≈ 1.64 to 13.1 µM) | < 1 | < 1 | < 1 | < 1 | < 1 | < 1 | < 1 | 100 | 1 | 2 | less than 2% | MIC [13, 29]: 1 to 8 µg/mL (≈ 1.64 to 13.1 µM); MIC [13, 30]: 1 to 8 µg/mL (≈ 1.64 to 13.1 µM); MIC [13, 31]: 1 to 8 µg/mL (≈ 1.64 to 13.1 µM); MIC [14, 32]: < 1 µg/mL; MIC [14, 33]: < 1 µg/mL; MIC [15, 34]: 1 to 8 µg/mL (≈ 1.64 to 13.1 µM); MIC [15, 35]: 1 to 8 µg/mL (≈ 1.64 to 13.1 µM); MIC [15, 36]: 1 to 8 µg/mL (≈ 1.64 to 13.1 µM); MIC [16, 37]: 1 to 8 µg/mL (≈ 1.64 to 13.1 µM); MIC [16, 38]: 1 to 8 µg/mL (≈ 1.64 to 13.1 µM); MIC [17, 39]: > 8 µg/mL; MIC [17, 40]: > 8 µg/mL; MIC [18]: 1 to 8 µg/mL (≈ 1.64 to 13.1 µM)
